Source: ChEMBL document CHEMBL1125473, “A series of potent HIV-1 protease inhibitors containing a hydroxyethyl secondary amine transition state isostere: synthesis, enzyme inhibition, and antiviral activity” (J Med Chem, 1992)
Numbered stars: 1 amine (or outer) side, 2 acyl side, 3 side chain; on linkers, the order of the positions; unused ones are H or OH. Square brackets hold non-standard residues; d marks the D form. Peptide text beside a SMILES is read from it. X1 = O=C([C@H]1CCCN1C[C@@H](O)[C@@H](Cc1ccccc1)N[*:1])[*:2]

Molecular target: T1, Human immunodeficiency virus type 1 protease (Human immunodeficiency virus 1, UniProt Q72874)
Assay: In vitro inhibition of HIV protease, using a peptide hydrolysis assay

SMILES	IC50 [µM]
CC(C)(C)OC(=O)N[C@@H](Cc1ccccc1)[C@H](O)CNC(C(=O)N[C@H]1c2ccccc2C[C@H]1O)C(O)c1ccccc1 (stereo in doubt; 12)	8.5
CC(C)(C)OC(=O)N[C@@H](Cc1ccccc1)C(O)CNC(Cc1ccccc1)C(=O)NC(CO)c1ccccc1 (stereo not given in full)	38
CC(C)(C)OC(=O)N[C@@H](Cc1ccccc1)[C@@H](O)CN[C@H](Cc1ccccc1)C(=O)N[C@H]1c2ccccc2C[C@H]1O	23.4
CC(C)(C)OC(=O)N[C@@H](Cc1ccccc1)[C@H](O)CN[C@H](Cc1ccccc1)C(=O)N[C@H]1c2ccccc2C[C@H]1O	7.3
CC(C)(C)OC(=O)N[C@@H](Cc1ccccc1)[C@@H](O)CN[C@@H](Cc1ccccc1)C(=O)N[C@H]1c2ccccc2C[C@H]1O	4.7
CC(C)(C)OC(=O)N[C@@H](Cc1ccccc1)[C@H](O)CN[C@@H](Cc1ccccc1)C(=O)N[C@H]1c2ccccc2C[C@H]1O	0.252
CC(C)(C)OC(=O)N[C@@H](Cc1ccccc1)[C@H](O)CNC(C(=O)N[C@H]1c2ccccc2C[C@H]1O)C(O)c1ccccc1 (stereo in doubt; 13)	8.6

Molecular target: T1, Human immunodeficiency virus type 1 protease
Assay: In vitro inhibition of HIV-Protease, using a peptide hydrolysis assay

SMILES	IC50 [µM]	Ki [µM]
N[C@@H](Cc1ccccc1)C(O)CN[C@@H](Cc1ccccc1)C(=O)NC1c2ccccc2C[C@H]1O (stereo not given in full)	63	–
CC[C@H](C)[C@H](NC(=O)[C@H]1CCCN1C[C@@H](O)[C@@H](Cc1ccccc1)NC(=O)[C@H](CC(N)=O)NC(=O)[C@H](CC(C)C)NC(=O)[C@@H](N)CO)C(=O)N[C@H](C(=O)OC)C(C)C (H-SLN[X1]IV-OMe)	–	0.00024
CC(C)(C)NC(=O)[C@@H]1C[C@@H]2CCCC[C@@H]2CN1C[C@@H](O)[C@H](Cc1ccccc1)NC(=O)OC(C)(C)C	> 3	–
CC(C)(C)OC(=O)N[C@@H](Cc1ccccc1)[C@H](O)CN1C[C@H]2CCCC[C@H]2C[C@H]1C(=O)NC1c2ccccc2CC1O (stereo not given in full)	> 3	–
CC(C)(C)NC(=O)C(Cc1ccccc1)NCC(O)[C@H](Cc1ccccc1)NC(=O)OC(C)(C)C (stereo not given in full)	> 100	–
NC(=O)CC(NC(=O)c1ccc2ccccc2n1)C(=O)N[C@@H](Cc1ccccc1)[C@H](O)CN[C@@H](Cc1ccccc1)C(=O)NC1c2ccccc2C[C@H]1O (stereo not given in full)	0.0054	–
CC(C)(C)OC(=O)NC(CC(N)=O)C(=O)N[C@@H](Cc1ccccc1)C(O)CN[C@@H](Cc1ccccc1)C(=O)NC1c2ccccc2C[C@H]1O (stereo not given in full)	0.295	–
NC(=O)CC(N)C(=O)N[C@@H](Cc1ccccc1)[C@H](O)CN[C@@H](Cc1ccccc1)C(=O)NC1c2ccccc2C[C@H]1O (stereo not given in full)	1.1	–
